According to article PMC11312998, “Molecular Pro-Apoptotic Activities of Flavanone Derivatives in Cyclodextrin Complexes: New Implications for Anticancer Therapy” (International Journal of Molecular Sciences, 2024):

Legend:
[1] = test system: Hec-1-A; test: Plasma membrane fluidity, TMA-DPH fluorescence anisotropy; assay type: cell-based, human; conditions: IC50 concentration, 24 h
Method: (§1) Changes in plasma membrane fluidity were determined by fluorescence spectroscopy and two fluorescent probes located at different depths of the lipid bilayer: TMA-DPH ((1-(4-Trimethylammoniumphenyl)-6-Phenyl-1,3,5-Hexatriene p-Toluene sulfonate, Sigma-Aldrich; St. Louis, MO, USA) and DAUDA (11-[5-(Dimethylamino)-1-naphthalenesulfonylamino] undecanoic acid, Sigma-Aldrich, St. Louis, MO, USA). TMA-DPH is incorporated in the superficial area of the outer monolayer, while DAUDA penetrates into the deeper hydrophobic area of the membrane. The fluorescence of the probes was measured on a Perkin-Elmer spectrofluorometer (Waltham, MA, USA) with an attachment for measuring fluorescence anisotropy with parallel and perpendicular positions of the polarizers.
(§2) Cells were seeded on sterile 35 mm dishes in numbers appropriate for a given cell line. […] After 24 h incubation, the cells were trypsinized and transferred to Eppendorf tubes (0.5 mL of suspension/sample). The cell suspension was centrifuged at 2500 rpm for 5 min at 4 °C. […] Fluorescence measurements were made on a Perkin-Elmer LS-5B spectrofluorometer (MA, USA) in an attachment with a polarizer, reading the fluorescence anisotropy at an excitation wavelength λex = 365 nm and emission wavelength λem = 425 nm (TMA-DPH), as well as excitation wavelength λex = 350 nm and emission wavelength λem = 420 nm (DAUDA).

[2] = test system: Ishikawa; test: as above; assay type: cell-based, human; conditions: IC50 concentration, 24 h
Method: as §1, §2

For `COc1cccc(/C=C2/C(=O)c3ccccc3OC2c2ccccc2)c1` (centres unmarked) [Compound 3], the “increase in cell membrane fluidity (TMA-DPH)” value [1] was “approximately 20%”.

With `O=C1/C(=C/c2ccccc2)C(c2ccccc2)Oc2ccccc21` (centres unmarked) [Compound 5] the “increase in cell membrane fluidity (TMA-DPH)” value [2] was “approximately 20%”.
